Results reported in US12220461B2, “Polypeptide-coupled small molecule compound and antiviral application thereof” (Guangzhou Medical University, priority 2023, dated 2025).
Starred links: 1 amine or outer side, 2 acyl side, 3 side chain; linkers in the order of their positions; H or OH if unused. Non-standard residues stand in square brackets, D forms with d. Residues, ends and D or L forms follow the SMILES beside them. ξ: configuration not given here. *: point of attachment. X1 = Cc1ccc(N[*:1])cc1C(=O)[*:2]; X2 = C[C@@H](N*)c1cccc2ccccc12; X3 = S=c1nc(N*)[nH]c2nc[nH]c12; ξR = N=C(N)NCCCC(N)C(=O)O; ξL = CC(C)CC(N)C(=O)O; ξS = NC(CO)C(=O)O

Key:
[1] = tested on: A549 cells, MLE-12 cells and 293T cells
PLpro = target: T1, PLpro (Severe acute respiratory syndrome coronavirus 2, UniProt P0DTD1); test: cell-based; parameters: species or system SARS-CoV-2
T1 construct: expressed in transfected cells; host or cells: 293T cells

293T cells = settings: same concentration, 24 h
Procedure: 9.1 Plating: 293T cells in logarithmic growth phase are inoculated into a 96-well plate (100 μL/well), triplicate wells are made in each group, and the number of cells in each well is set at 5×10^3. The cells are put in a 5% CO2 incubator at 37° C. for 12 h.
The dosage concentrations are set to 100 μM, 50 μM, 25 μM, 12.5 μM, 6.25 μM and 3.125 μM, and the dosage volume is 2 μL. The control group is added with 2 μL DMSO. Then, they are put in a 5% CO2 incubator at 37° C. for culture.
9.3 After 24 hours, the cells are washed with PBS twice, and then added 100 μL of pre-mixed CCK8 solution (medium: CCK8 working solution=9:1) to each well to avoid introduction of bubbles in the operation. Culture is continued for 2 h in a 5 6% CO2 incubator at 37° C.
9.4 The absorbance D(λ) of each well at the wavelength of 450 nm is determined by the microplate reader. D(λ) values of the negative control group, the control group and the experimental group are analyzed to determine the cell activity. Cell viability reflects the cytotoxicity of the drug. The groups are as follows: • the experimental group (medium containing cells, CCK-8, the drug to be tested); • the control group (medium containing cells, CCK-8, without drug to be tested); and • the negative control group (medium without cells and the substance to be detected, with CCK-8).

SARS-CoV-2 = assay type: cell-based

| SMILES | cytotoxicity (CCK8 cell viability) [1] | IC50 (PLpro) | cytotoxicity (CCK8 cell viability) (293T cells) | IC50 for inhibition of CPE induced by SARS-CoV-2 (SARS-CoV-2) |
| --- | --- | --- | --- | --- |
| Cc1ccc(NC(=O)CNC(=O)CNC(=O)C(CCCNC(=N)N)NC(=O)C(CC(C)C)NC(=O)C(CCCNC(=N)N)NC(=O)C(N)CO)cc1C(=O)N[C@H](C)c1cccc2ccccc12 (some centres unmarked) [RG-17] (H-[ξS][ξR][ξL][ξR]GG[X1]-X2) | does not affect the cell growth | 13.7 µM |  |  |
| Cc1ccc(N)cc1C(=O)N[C@H](C)c1cccc2ccccc12 [GRL0617, reference compound] | great cytotoxicity |  |  |  |
| CC(C)CC(NC(=O)C(CCCNC(=N)N)NC(=O)C(N)CO)C(=O)NC(CCCNC(=N)N)C(=O)NCC(=O)NCC(=O)Nc1nc(=S)c2[nH]cnc2[nH]1 (centres unmarked) [RG-6] (H-SRLRGG-X3; configuration not given here) |  |  | less cytotoxicity than 6-TG | lower than 6-TG |
